The values below come from patent US20250179032A1, “HETEROCYCLIC INHIBITORS OF GLUT9 FOR TREATMENT OF DISEASE” (HORIZON THERAPEUTICS IRELAND DAC, priority 2022, published 2025).

Each structure is given as a SMILES string. A value given as a limit tells only on which side of the number the result lay.

In the test the target is T1, H. sapiens SLC2A9 variant 2 (GLUT9B) (Homo sapiens, UniProt Q9NRM0).
T1 sequence (Q9NRM0 1-511 isoform Q9NRM0-2): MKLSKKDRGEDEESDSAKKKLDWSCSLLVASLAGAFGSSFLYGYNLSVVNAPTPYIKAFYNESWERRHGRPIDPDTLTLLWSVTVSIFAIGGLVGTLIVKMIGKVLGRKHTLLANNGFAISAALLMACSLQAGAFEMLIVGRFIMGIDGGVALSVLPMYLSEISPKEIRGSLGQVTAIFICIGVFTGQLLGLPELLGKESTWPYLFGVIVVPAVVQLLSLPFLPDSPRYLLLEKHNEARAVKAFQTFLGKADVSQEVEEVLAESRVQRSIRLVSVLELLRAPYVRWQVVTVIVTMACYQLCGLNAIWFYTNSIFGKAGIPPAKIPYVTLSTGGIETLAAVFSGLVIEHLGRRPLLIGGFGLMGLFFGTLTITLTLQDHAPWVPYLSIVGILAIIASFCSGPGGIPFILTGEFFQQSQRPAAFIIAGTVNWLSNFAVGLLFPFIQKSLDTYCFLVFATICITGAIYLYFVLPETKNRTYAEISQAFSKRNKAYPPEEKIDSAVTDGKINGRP
Nature of the test: GLUT9 functional assay: uric acid uptake in HEK293T cells, allantoin formation by MS/MS as proxy of GLUT9B inhibition. Format: cell-based. To be noted: 60 minute assay; HEK293T cells stably expressing GLUT9B and transiently A. oryzae uricase; uric acid 0.3 mM, 37° C.; read-out: 60 min IC50. Summed up: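 HEK293T cells stably expressing human GLUT9B and transiently expressing A. oryzae uricase, exposed across a 12-point curve to 0.3 mM uric acid (Km) in sodium gluconate buffer pH 7.4 for 15 or 60 min at 37° C. Allantoin in lysates quantified by RapidFire MS/MS (positive ion) against a matrix-matched standard curve as proxy for uptake.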
As a reminder, the IC50 is the concentration that gives 50% inhibition. As for `COCCCc1cnc(-c2ccc3c(c2)OCO3)c(N2CC3(CC(C(=O)O)C3)C2)c1` [Compound 250, 2-(2-(benzo[d][1,3]dioxol-5-yl)-5-(3-methoxypropyl)pyridin-3-yl)-2-azaspiro[3.3]heptane-6-carboxylic acid], the half-maximal inhibitory concentration (IC50) is above 2000 nM.
Next, `COCCCc1cnc(-c2ccc3c(c2)OCO3)c(N2CC(C(=O)O)C2)c1` [Compound 251, 1-(2-(benzo[d][1,3]dioxol-5-yl)-5-(3-methoxypropyl)pyridin-3-yl)azetidine-3-carboxylic acid]: above 2000 nM; `COCCCc1cnc(-c2ccc3c(c2)OCO3)c(N2CC(OC)(C(=O)O)C2)c1` [Compound 252, 1-(2-(benzo[d][1,3]dioxol-5-yl)-5-(3-methoxypropyl)pyridin-3-yl)-3-methoxyazetidine-3-carboxylic acid]: above 2000 nM.
For `COCCCc1cnc(-c2ccc3occ(Cl)c3c2)c(N2CCC(C(=O)O)CC2)n1` [Compound 253, 1-(3-(3-chlorobenzofuran-5-yl)-6-(3-methoxypropyl)pyrazin-2-yl)piperidine-4-carboxylic acid], the IC50 was below 500 nM.
For the compound `COCCCc1cnc(-c2ccc(SC)cc2)c(N2CCC(C(=O)O)CC2)n1` [Compound 254, 1-(6-(3-methoxypropyl)-3-(4-(methylthio)phenyl)pyrazin-2-yl)piperidine-4-carboxylic acid], the IC50 is below 500 nM.
Consider `COCCCc1cnc(-c2ccc(F)c(F)c2)c(N2CCC(C(=O)O)CC2)n1` [Compound 255, 1-(3-(3,4-difluorophenyl)-6-(3-methoxypropyl)pyrazin-2-yl)piperidine-4-carboxylic acid], for which the 50% inhibitory concentration (IC50) lay within 500 to 2000 nM.
